Test results reported in ChEMBL document CHEMBL1151153, “Chemistry of Sponges, VII. 11,19-Dideoxyfistularin 3 and 11-Hydroxyaerothionin, Bromotyrosine Derivatives from Pseudoceratina durissima” (J Nat Prod, 1990).
Active and inactive are the calls of the source.

Tests used:
Type in all cases: functional, organism-based
Staphylococcus aureus [1] = assay: Antimicrobial activity against Staphylococcus aureus at 100 ug/disk
Candida albicans [2] = assay: Antimicrobial activity against Candida albicans at 50 ug/disk
Bacillus subtilis [3] = assay: Antimicrobial activity against Bacillus subtilis at 50 ug/disk
Bacillus subtilis [4] = assay: Antimicrobial activity against Bacillus subtilis at 10 ug/disk
Candida albicans [5] = assay: Antimicrobial activity against Candida albicans at 25 ug/disk
Staphylococcus aureus [6] = assay: Antimicrobial activity against Staphylococcus aureus at 25 ug/disk

Measured: Activity

COC1=C(Br)[C@@H](O)[C@]2(C=C1Br)CC(C(=O)NCCC(O)CNC(=O)C1=NO[C@]3(C=C(Br)C(OC)=C(Br)[C@@H]3O)C1)=NO2 (some centres not stated)
active: Staphylococcus aureus [1] | Candida albicans [2] | Bacillus subtilis [3]

COC1=C(Br)[C@H](O)[C@@]2(C=C1Br)CC(C(=O)NCCCCCNC(=O)C1=NO[C@]3(C=C(Br)C(OC)=C(Br)[C@@H]3O)C1)=NO2
active: Staphylococcus aureus [1] | Candida albicans [2] | Bacillus subtilis [3]

COC1=C(Br)[C@H](O)[C@@]2(C=C1Br)CC(C(=O)NCCCCNC(=O)C1=NO[C@]3(C=C(Br)C(OC)=C(Br)[C@@H]3O)C1)=NO2
active: Staphylococcus aureus [1] | Candida albicans [2] | Bacillus subtilis [3]

COC1=C(Br)[C@@H](O)[C@]2(C=C1Br)CC(C(=O)NCCc1cc(Br)c(OCCCNC(=O)C3=NO[C@]4(C=C(Br)C(OC)=C(Br)[C@@H]4O)C3)c(Br)c1)=NO2
active: Bacillus subtilis [4] | Candida albicans [5] | Staphylococcus aureus [6]
